Counter-ions that a name gives are not always drawn.
Legend:
[1] = tested on: motility of the gastrointestinal (GI) tract; experiment: Animal models of gastrointestinal motility; assay type: in vivo
[2] = tested on: loperamide-induced delayed gastric emptying; experiment: Rat gastric emptying assay (reversal of loperamide-induced delayed gastric emptying); assay type: in vivo; details: administered orally, loperamide 1 mg/kg s.c.
Method: In this assay the efficacy of test compounds was evaluated in a model of gastrointestinal transit, which evaluates peripheral activity. This study was approved by the Institutional Animal Care and Use Committee at […]. and conformed to the Guide for the Care and Use of Laboratory Animals published by the National Academy of Sciences (©1996). Test compounds were evaluated in the rat gastric emptying assay to determine their ability to reverse loperamide-induced delayed gastric emptying. Rats were fasted up overnight prior to administration of test compounds or vehicle by intravenous, subcutaneous, intramuscular or oral routes of administration at doses ranging from 0.001 to about 30 milligrams/kilogram (mg/kg). The administration of test compound was followed by subcutaneous administration of loperamide at a dose of 1 mg/kg or vehicle. […] Gastric weight was then determined after removal of the ligatures. Data was analyzed using the GraphPad Prism Software package (GraphPad Software, Inc., San Diego, Calif.). Percent reversal curves were constructed by non-linear regression analysis using the sigmoidal dose response (variable slope) model and best-fit ID50 values were calculated. […]

[3] = Solid state stability assessment; assay type: physicochemical; details: for changes in DSC, TGA, XRPD results after storage: 4 weeks storage at elevated temperature and humidity
Method: Samples of the sulfate salt of the invention were stored in multiple open glass vials at 20° C. and 60% relative humidity (RH) and at 40° C. and 75% RH. At specific intervals, the contents of a representative vial was removed and analyzed by DSC, TGA, PXRD, and by HPLC for chemical purity. […] The chemical purity of the stored samples by HPLC was unchanged at 99.7%.

human mu opioid receptor [4] = target: T1, human mu opioid receptor (Homo sapiens, UniProt P35372); experiment: biochemical; details: read-out: intrinsic activity (IA)
human mu opioid receptor [5] = target: T1, human mu opioid receptor; experiment: Radioligand binding assay on human mu opioid receptor ([3H]-Diprenorphine displacement, CHO-K1 membranes); details: [3H]-Diprenorphine at 0.5 nM
[6] = Dynamic moisture sorption assessment; assay type: physicochemical
Method: Dynamic moisture sorption (DMS) assessment was performed at 25° C. using a VTI atmospheric microbalance, SGA-100 system (VTI Corp., Hialeah, Fla. 33016). […] A typical DMS analysis consisted of three scans: ambient to 2% relative humidity (RH), 2% RH to 90% RH, 90% RH to 5% RH at a scan rate of 5% RH/step. The mass was measured every two minutes and the RH was changed to the next value (±5% RH) when the mass of the sample was stable to within 0.02% for 5 consecutive points. Representative DMS traces for samples of a crystalline sulfate salt and of a crystalline hydrate of a sulfate salt of compound 1 are shown in FIGS. 3 and 6, respectively.

T1 sequence (P35372 whole entry): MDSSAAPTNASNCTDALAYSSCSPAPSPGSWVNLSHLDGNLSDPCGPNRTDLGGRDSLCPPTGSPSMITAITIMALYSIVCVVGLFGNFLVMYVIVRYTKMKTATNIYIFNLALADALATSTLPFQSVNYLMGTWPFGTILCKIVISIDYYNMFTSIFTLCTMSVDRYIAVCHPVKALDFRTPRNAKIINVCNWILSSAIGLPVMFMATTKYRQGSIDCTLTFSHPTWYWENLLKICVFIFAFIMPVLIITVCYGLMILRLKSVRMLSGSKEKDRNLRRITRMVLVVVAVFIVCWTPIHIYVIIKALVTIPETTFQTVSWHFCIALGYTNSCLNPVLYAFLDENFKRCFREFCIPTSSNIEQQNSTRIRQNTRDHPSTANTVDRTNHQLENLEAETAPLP

**Q.** Which “effect on motility of the gastrointestinal tract” value [1] does the source give for `NC(=O)c1cccc(C2CC3CCC(C2)N3CCN(CC2CCCCC2)C(=O)[C@@H](O)CO)c1` (stereo partly drawn) [compound 1, 3-endo-(8-{2-[cyclohexylmethyl-((S)-2,3-dihydroxy-propionyl)amino]ethyl}-8-aza-bicyclo[3.2.1]oct-3-yl)benzamide] here?
**A.** increase motility of the gastrointestinal (GI) tract

**Q.** For `NC(=O)c1cccc(C2CC3CCC(C2)N3CCN(CC2CCCCC2)C(=O)[C@@H](O)CO)c1` (stereo partly drawn) [sulfate salt of compound 1, 3-endo-(8-{2-[cyclohexylmethyl-((S)-2,3-dihydroxy-propionyl)amino]ethyl}-8-aza-bicyclo[3.2.1]oct-3-yl)benzamide sulfate], which “ID50, dose required for 50% reversal of the effects of loperamide” value [2] is on record?
**A.** 0.26 mg/kg

**Q.** And the “changes in DSC, TGA, XRPD results after storage” value ([3]; listed as crystalline sulfate salt of compound 1)?
**A.** no detectable changes

**Q.** What about the “changes in DSC, TGA, XRPD results after storage” value ([3]; listed as sulfate salt of the invention) of the same compound?
**A.** no detectable change

**Q.** What about the “chemical purity of the stored samples by HPLC” value ([3]; 4 weeks storage, open vials, 20° C./60% RH and 40° C./75% RH) of the same compound?
**A.** 99.7%

**Q.** And the “chemical degradation by HPLC” value ([3]; storage for 4 weeks at 40° C. and 75% relative humidity)?
**A.** no chemical degradation

**Q.** What about the Emax (human mu opioid receptor [4]) of the same compound?
**A.** -5%

**Q.** What about the Ki (human mu opioid receptor [5]) of the same compound?
**A.** 0.126 nM

**Q.** What about the “weight change/gain on moisture sorption (hygroscopicity)” value ([6]; 2% to 90% relative humidity at room temperature) of the same compound?
**A.** less than 0.3%

**Q.** What about the deliquescence ([6]; up to about 90% relative humidity at room temperature) of the same compound?
**A.** neither the crystalline sulfate salt of the invention nor the hydrate thereof is deliquescent

Source: patent US10426766B2, “Crystalline forms of an 8-azabicyclo[3.2.1]octane compound” (THERAVANCE BIOPHARMA R&D IP, LLC, priority 2007, dated 2019)
